Patent US4417052A, “Phenyl-lower-alkyl piperidines and pyrrolidines” (Sterling Drug Inc., priority 1981, dated 1983)
Where a name gives a salt, the structure may show the parent alone.

How the values were obtained:
[1] = system: adjuvant-induced arthritis; assay: inhibition of adjuvant-induced arthritis test (A.A.); format: in vivo; conditions: oral; for A.A. percent inhibition (in brackets): corn oil vehicle; for A.A. percent inhibition (in parentheses): second experiment; for inhibition in vivo at 80 µmol/kg: dose 0.08 millimoles/kg
Experimental: (§1) Anti-inflammatory activity was determined using (1) the inhibition of carrageenin-induced foot edema test essentially described by Winter et al., Proc. Soc. Exp. Biol. and Med. 111, 554 (1962) as modified by Van Arman et al., J. Pharmacol. Exptl. Therap. 150, 328 (1965) and (2) a modification of the inhibition of adjuvant-induced arthritis test described by Pierson, J. Chronic Diseases 16, 863 (1963) and Glenn et al., Am. J. Vet. Res. 26, 1180 (1965).
(§2) The N-{2-,3- and 4-[R1 -(phenyl)-C(=X)]-phenyl-lower-alkyl}amines of formulas I, Ia and Ib of the invention have been tested in the carrageenin edema (CE) and adjuvant arthritis (AA) tests and found to have anti-inflammatory activity. For comparative purposes, data obtained in the carrageenin edema test on the reference compound (designated "Ref."), 4[(3-benzoylphenyl)methyl]morpholine, disclosed in French Patent 1,549,342, are also given. All data were obtained on oral administration.

[2] = system: carrageenin-induced foot edema; assay: inhibition of carrageenin-induced foot edema test (C.E.); format: in vivo; conditions: oral; for inhibition in vivo at 4 µmol/kg: dose 0.004 millimoles/kg; for inhibition in vivo at 20 µmol/kg: dose 0.02 millimoles/kg; for C.E. percent inhibition (Table B): formula V amides
Experimental: as §1, §2

[3] = read-out: C.E. percent inhibition
[4] = read-out: A.A. percent inhibition
[5] = dose 0.324 millimoles/kg, (a) data obtained after 17 days on test and 9 medications
[6] = dose 0.08 millimoles/kg, read-out: C.E. percent inhibition
[7] = dose 0.324 millimoles/kg, read-out: C.E. percent inhibition

SMILES	inhibition in vivo at 4 µmol/kg [2, 3] [%]	inhibition in vivo at 20 µmol/kg [2, 3] [%]	inhibition in vivo at 80 µmol/kg [2, 6] [%]	inhibition in vivo at 324 µmol/kg [2, 7] [%]	other results
CC(CN1CCCCC1CC1CCCCC1)c1cccc(C(=O)c2ccccc2)c1.Cl (single isomer, unassigned) [14(a), 2-cyclohexylmethyl-1-[2-(3-benzoylphenyl)propyl]piperidine hydrochloride]					A.A. percent inhibition (in brackets) ([1]; dose 0.0013 millimoles/kg): 0%; A.A. percent inhibition (in parentheses) ([1]; dose 0.0013 millimoles/kg): 28%; inhibition in vivo at 1.3 µmol/kg ([1]; dose 0.0013 millimoles/kg, read-out: A.A. percent inhibition): 16%; A.A. percent inhibition (in brackets) ([1]; dose 0.005 millimoles/kg): 39%; A.A. percent inhibition (in parentheses) ([1]; dose 0.005 millimoles/kg): 46%; inhibition in vivo at 5 µmol/kg ([1]; dose 0.005 millimoles/kg, read-out: A.A. percent inhibition): 46%; A.A. percent inhibition (in brackets) ([1]; dose 0.02 millimoles/kg): 65%; A.A. percent inhibition (in parentheses) ([1]; dose 0.02 millimoles/kg): 87%; inhibition in vivo at 20 µmol/kg ([1]; dose 0.02 millimoles/kg, read-out: A.A. percent inhibition): 79%
CC(CN1CCC2(CC1)OCCO2)c1cccc(C(=O)c2ccccc2)c1 (centres unmarked) [7G (base), 8-[2-(3-Benzoylphenyl)propyl]-1,4-dioxa-8-azaspiro[4,5]decane]	33	42			inhibition in vivo at 80 µmol/kg [1, 4]: 76%
CC(CN1CCOCC1)c1cccc(C(=O)c2ccccc2)c1 (centres unmarked) [7H (base), 4-[2-(3-Benzoylphenyl)propyl]morpholine]	29	44			inhibition in vivo at 80 µmol/kg [1, 4]: 81%
CC(C(=O)N1CCCCC1CC1CCCCC1)c1cccc(C(=O)c2ccccc2)c1 (stereo not drawn) [Example 1 (Table B), 2-cyclohexylmethyl-1-[α-(3-benzoylphenyl)propionyl]piperidine]					C.E. percent inhibition (Table B) ([2]; dose 0.08 millimoles/kg): 21%; C.E. percent inhibition (Table B, footnote a) [2, 5]: 36%; A.A. percent inhibition (Table B, footnote a) [1, 5]: 67%
OC(c1ccccc1)c1cccc(CCN2CCCCC2CC2CCCCC2)c1 (stereo not drawn) [Example 1A, 2-Cyclohexylmethyl-1-{2-[3-(α-hydroxybenzyl)phenyl]ethyl}piperidine]	0	0	51	62	
O=C(c1ccccc1)c1cccc(CCN2CCOCC2)c1 [Example 1C, 4-[2-(3-Benzoylphenyl)ethyl]morpholine hydrochloride monohydrate]			40	77	
CN(C)CCCNCCc1cccc(C(=O)c2ccccc2)c1 [Example 1D, N-[2-(3-Benzoylphenyl)ethyl]-N-(3-dimethylaminopropyl)amine dihydrochloride hemi-hydrate]			36	65	
CC(C(=O)N1CCN(C2CCCC2)CC1)c1cccc(C(=O)c2ccccc2)c1.Cl (stereo not drawn) [Example 1J, 4-Cyclopentyl-1-[α-(3-benzoylphenyl)propionyl]piperazine hydrochloride]					C.E. percent inhibition (Table B) ([2]; dose 0.08 millimoles/kg): 18%; C.E. percent inhibition (Table B) ([2]; dose 0.324 millimoles/kg): 72%
CC(CN1CCCCC1CC1CCCCC1)c1cccc(C(O)c2cccc(Cl)c2)c1 (stereo not drawn) [Example 3A, 2-Cyclohexylmethyl-1-{2-[3-(α-hydroxy-3-chlorobenzyl)phenyl]propyl}piperidine]	0	0	34	75	
CC(CN1CCCCC1CCCC1CCCCC1)c1cccc(C(O)c2ccccc2)c1 (stereo not drawn) [Example 3E, 2-(3-Cyclohexylpropyl)-1-{2-[3-(α-hydroxybenzyl)phenyl]propyl}piperidine]	14	34			
Cc1ccc(C(O)c2cccc(C(C)CN3CCCCC3CC3CCCCC3)c2)cc1 (stereo not drawn) [Example 4, 2-cyclohexylmethyl-1-{2-[3-(α-hydroxy-4-methylbenzyl)phenyl]propyl}piperidine]	0	1	18	72	
CC(CN1CCCCC1CC1CCCCC1)c1cccc(C(O)c2c(Cl)cccc2Cl)c1 (stereo not drawn) [Example 5A, 2-Cyclohexylmethyl-1-{2-[3-(α-hydroxy-2,6-dichlorobenzyl)phenyl]propyl}piperidine]	0	0	58	68	
CC(CN1CCCCC1CC1CCCCC1)c1cccc(C(C)(O)c2ccccc2)c1 (stereo not drawn) [Example 6, 2-cyclohexylmethyl-1-{2-[3-(α-hydroxy-α-methylbenzyl)phenyl]propyl}piperidine]	14	5	28	55	
Cc1ccc(C(=O)c2cccc(C(C)CN3CCCCC3CC3CCCCC3)c2)cc1 (centres unmarked) [Example 7C, 2-Cyclohexylmethyl-1-{2-[3-(4-methylbenzoyl)phenyl]propyl}piperidine]	0	10	58	75	
CC1CN(CC(C)c2cccc(C(=O)c3ccccc3)c2)CC(C)O1 (centres unmarked) [Example 7J, 2,6-Dimethyl-4-[2-(3-benzoylphenyl)propyl]morpholine cyclohexanesulfamate]			62	66	
Cc1ccccc1C(=O)c1cccc(C(C)CN2CCCCC2CC2CCCCC2)c1 (centres unmarked) [Example 8, 2-cyclohexylmethyl-1-{2-[3-(2-methylbenzoyl)phenyl]propyl}piperidine]	2	21	33	68	
Cc1cccc(C(=O)c2cccc(C(C)CN3CCCCC3CC3CCCCC3)c2)c1 (centres unmarked) [Example 9, 2-cyclohexylmethyl-1-{2-[3-(3-methylbenzoyl)phenyl]propyl}piperidine]	0	0	21	47	
CC(CN1CCCCC1CC1CCCCC1)c1cccc(C(C)c2ccccc2)c1 (stereo not drawn) [Example 11, 2-cyclohexylmethyl-1-{2-[3-(α-methylbenzyl)phenyl]propyl}piperidine]	0	15	29	64	
ON=C(c1ccccc1)c1cccc(CCN2CCOCC2)c1 [Example 15A, 4-[2-(3-Benzoylphenyl)ethyl]morpholine oxime]			27	29	
NC(c1ccccc1)c1cccc(CCN2CCOCC2)c1 (stereo not drawn) [Example 16A, 4-{2-[3-(α-Aminobenzyl)phenyl]ethyl}morpholine dihydrochloride]			27	39	
CC(CN1CCOCC1)c1cccc(C(N)c2ccccc2)c1 (stereo not drawn) [Example 16C, 4-{2-[3-(α-Aminobenzyl)phenyl]propyl}morpholine dihydrochloride]			49	84	
C=C(c1ccccc1)c1cccc(C(C)CN2CCCCC2CC2CCCCC2)c1 (centres unmarked) [Example 17, 2-cyclohexylmethyl-1-{2-[3-(1-phenyl-1-vinyl)phenyl]propyl}piperidine]	9	16	47	67	
O=C(c1ccccc1)c1cccc(CCN2CCCCC2CC2CCCCC2)c1 (centres unmarked) [Example 20A, 2-Cyclohexylmethyl-1-[2-(3-benzoylphenyl)ethyl]piperidine]		25	46	70	inhibition in vivo at 40 µmol/kg ([2]; dose 0.04 millimoles/kg, read-out: C.E. percent inhibition): 9%
CC(CN1CCCCC1CC1CCCCC1)c1cccc(C(=O)c2cccc(Cl)c2)c1 (centres unmarked) [Example 20B, 2-Cyclohexylmethyl-1-{2-[3-(3-chlorobenzoyl)phenyl]propyl}piperidine]	14	0	22	65	
CC(CN1CCCCC1CC1CCCCC1)c1cccc(C(=O)c2ccc(Cl)c(Cl)c2)c1 (centres unmarked) [Example 20C, 2-Cyclohexylmethyl-1-{2-[3-(3,4-dichlorobenzoyl)phenyl]propyl}piperidine]	17	15	19	51	
CC(c1cccc(C(=O)c2ccccc2)c1)N1CCOCC1 (centres unmarked) [Example 21, 4-[1-(3-benzoylphenyl)ethyl]morpholine]			32	46	
CN(C)C(c1ccccc1)c1cccc(CCN2CCOCC2)c1 (stereo not drawn) [Example 22, 4-{2-[3-(α-dimethylaminobenzyl)phenyl]ethyl}morpholine]			29	63	
O=C(c1ccccc1)c1cccc(CN2CCOCC2)c1 [Ref., 4[(3-benzoylphenyl)methyl]morpholine, reference compound]			0	23	
